Source: US4520024A, “Method of selectively blocking peripheral vascular serotonergic receptors” (Eli Lilly and Company, priority 1983, dated 1985)

Key:
[1] = test system: conscious spontaneously hypertensive rats (SHR); assay: In vivo studies, conscious SHR, mean arterial blood pressure; design: species or system rat; details: intraperitoneal, 10 mg./kg. dose level
Description: Twenty-four week old SHR (325-425 g.) rats were anesthetized with halothane. They were then implanted with femoral arterial and venous catheters. The tips of the arterial and venous catheters were positioned in the abdominal aorta below the renal arteries and lower abdominal vena cava, respectively. The catheters were routed subcutaneously to an exit point at the base of the skull and then through a small leather harness fastened around the forequarters of each animal. The animals were allowed a 3-4 day recovery period after surgery. On the day before a given experiment, the rats to be used in that experiment were conditioned to the experimental surroundings for about 6 hours. In carrying out the determination, the harness on the back of each animal was connected to a spring-tether through which arterial and venous extension tubing were routed. The opposite end of the tubing was connected to a water tight swivel. This system permitted direct recording of blood pressure in conscious, free-moving animals. Mean arterial blood pressure was measured via a Statham strain gauge transducer and recorded on a multichannel oscillograph. The rats were equilibrated for at least 30 minutes prior to the initiation of the experimental protocol. During this equilibration period, the animals preened themselves and the blood pressure was quite labile. After this period, the animals appeared to sleep and pressure was stable. Following a control blood pressure measurement, the rats were dosed with ketanserin, benzoctamine, 1-(1-naphthyl)piperazine or the experimental vehicle via the intraperitoneal route. Blood pressure was monitored at various time intervals after dosing.

alpha1 receptor = assay: In vivo studies, pithed SHR, pressor response to methoxamine; design: species or system rat; details: i.p., rank order among three drugs
Protocol: SHR were anesthesized with halothane, femoral arterial and venous catheters implanted as before and the trachea cannulated. Each rat was pithed by passing a steel rod through the right orbit and down the entire length of the spinal column. The steel rod remained in place for the duration of the experiment. Immediately after pithing, the rats were ventilated with room air via a rodent respirator which eliminated any anesthetic effects. […] The response was recorded and the blood pressure allowed to recover to control levels. […] The test drugs were prepared fresh daily and administered by the intraperitoneal route. Benzoctamine and 1-(1-naphthyl)piperazine were administered at a 10 mg./kg. dosage and ketanserin at a 1 mg./kg. dosage.

5HT2 receptors [2] = molecular target: T1, 5HT2 receptors (Rattus norvegicus, UniProt P14842); assay: In vivo studies, pithed SHR, pressor response to serotonin; design: from tissue; host or cells: whole animal: pithed SHR, vascular tissue in vivo; details: i.p., rank order among three drugs
T1 sequence (P14842 whole entry): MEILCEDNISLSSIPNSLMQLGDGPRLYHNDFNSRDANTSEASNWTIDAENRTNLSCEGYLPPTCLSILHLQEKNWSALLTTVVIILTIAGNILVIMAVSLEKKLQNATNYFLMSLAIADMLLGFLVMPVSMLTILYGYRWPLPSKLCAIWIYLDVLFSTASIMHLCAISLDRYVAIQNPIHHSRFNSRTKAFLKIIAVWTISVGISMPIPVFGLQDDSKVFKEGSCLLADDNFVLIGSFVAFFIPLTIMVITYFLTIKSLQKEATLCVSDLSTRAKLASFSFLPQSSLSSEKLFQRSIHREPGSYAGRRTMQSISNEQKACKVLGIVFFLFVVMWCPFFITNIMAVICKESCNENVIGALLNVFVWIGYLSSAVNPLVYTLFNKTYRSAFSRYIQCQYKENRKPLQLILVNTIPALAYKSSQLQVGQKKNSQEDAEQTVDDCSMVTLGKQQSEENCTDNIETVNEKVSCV
Protocol: SHR were anesthesized with halothane, femoral arterial and venous catheters implanted as before and the trachea cannulated. Each rat was pithed by passing a steel rod through the right orbit and down the entire length of the spinal column. The steel rod remained in place for the duration of the experiment. Immediately after pithing, the rats were ventilated with room air via a rodent respirator which eliminated any anesthetic effects. An equilibration period of 15 minutes was observed prior to control measurements and administration of drugs or vehicle i.p. Increasing doses of serotonin or methoxamine were injected i.v. 15 minutes after the equilibration period. The response was recorded and the blood pressure allowed to recover to control levels. […] The test drugs were prepared fresh daily and administered by the intraperitoneal route. Benzoctamine and 1-(1-naphthyl)piperazine were administered at a 10 mg./kg. dosage and ketanserin at a 1 mg./kg. dosage.

[3] = test system: alpha-adrenergic receptors; assay: Apparent dissociation constant, antagonism of norepinephrine-induced contraction in rat aorta; type: cell-based
Description: (§1) Male Wistar rats (150-300 gram weight) were killed and their external jugular veins and thoracic aortas dissected free of connective tissue, cannulated in situ and placed in a modified Krebs' bicarbonate buffer in a suitable tissue bath. Two L-shaped 30-gauge stainless-steel hypodermic needles were inserted in each cannula and the dissected vessels gently pushed onto the needles. One needle was attached with thread to a stationary glass rod and the other to the transducer. [The procedure employed was that described by Hooker, Calkins and Fleisch, Blood Vessels, 14, 1, (1977) for use with circular smooth muscle preparations.]
(§2) The modified Krebs' bicarbonate buffer had the following makeup: (concentrations in millimoles): sodium chloride, 118.2; potassium chloride, 4.6; calcium chloride dihydrate, 1.6; potassium dihydrogenphosphate, 1.2; magnesium sulfate, 1.2; dextrose, 10.0; sodium bicarbonate, 24.8; and water q.s. to 1000 g. […] Isometric contractions were recorded as changes in grams of force on a Beckman Dynograph with Statham UC-3 transducers and microscale accessory attachment. […] Contraction to serotonin was evaluated in the jugular vein since this tissue produces marked responses to serotonin in the absence of alpha receptors--see Cohen and Wiley, J. Pharm. […] Alpha receptor antagonist activity was evaluated in the aorta. […]

5HT2 receptors [4] = molecular target: T1, 5HT2 receptors; assay: Apparent dissociation constant, antagonism of serotonin-induced contraction in rat jugular vein; type: cell-based; design: from tissue; host or cells: whole animal: pithed SHR, vascular tissue in vivo; details: serotonin as agonist, antagonist incubated one hour, read-out: -log KB for 5HT2 receptors (converted)
Description: as §1, §2

inhibition of the pressor response to serotonin (5HT2 receptors [2]; 1 mg./kg.)	SMILES	blood pressure lowering [1]	inhibition in the pressor response to methoxamine (alpha1 receptor; 1 mg./kg.)	-log KB for alpha-adrenergic receptors ([3]; rat thoracic aorta, norepinephrine as agonist, antagonist incubated one hour, 60 min)	lower affinity for alpha-adrenergic receptors than for 5HT2 receptors ([3]; ratio of affinities, 5HT2 versus alpha-adrenergic)	Kb (5HT2 receptors [4])	inhibition in the pressor response to methoxamine (alpha1 receptor; 10 mg./kg.)	inhibition of the pressor response to serotonin (5HT2 receptors [2]; 10 mg./kg.)
greatest	O=C(c1ccc(F)cc1)C1CCN(CCn2c(=O)[nH]c3ccccc3c2=O)CC1 [ketanserin]	produced the greatest fall in blood pressure	greatest effect	–	–	–	–	–
–	c1ccc2c(N3CCNCC3)cccc2c1 [1-(1-naphthyl)piperazine]	ineffective as a blood pressure lowering agent	–	5.38	approximately 2000 fold	1.78 nM	the least	–
–	CNCC12CCC(c3ccccc31)c1ccccc12 [benzoctamine]	lowered blood pressure as did ketanserin but to a lesser degree	–	–	–	–	second	then benzoctamine
